According to PubChem BioAssay AID1259407 (Chemical Carcinogenesis Research Information System (CCRIS), 2018):
Active and inactive are the calls of the source. How the calls were made is not given here.

Test system: CCRIS mutagenicity, Ames/micronucleus/aberration tests
Test: CCRIS mutagenicity studies
[1] = Test System: AMES SALMONELLA TYPHIMURIUM, Strain/Indicator: TA98, Metabolic Activation: NONE, Method: STANDARD PLATE
[2] = Test System: AMES SALMONELLA TYPHIMURIUM, Strain/Indicator: TA100, Metabolic Activation: NONE, Method: STANDARD PLATE
[3] = Test System: AMES SALMONELLA TYPHIMURIUM, Strain/Indicator: TA1535, Metabolic Activation: NONE, Method: STANDARD PLATE
[4] = Test System: AMES SALMONELLA TYPHIMURIUM, Strain/Indicator: TA1537, Metabolic Activation: NONE, Method: STANDARD PLATE
[5] = Test System: AMES SALMONELLA TYPHIMURIUM, Strain/Indicator: TA1538, Metabolic Activation: NONE, Method: STANDARD PLATE
[6] = Test System: AMES SALMONELLA TYPHIMURIUM, Strain/Indicator: TA98, Metabolic Activation: NONE, Method: PREINCUBATION
[7] = Test System: AMES SALMONELLA TYPHIMURIUM, Strain/Indicator: TA100, Metabolic Activation: NONE, Method: PREINCUBATION

Measured: mutagenic call

CCN(CC)CCNc1ccc(C)c2sc3ccccc3c(=O)c12
inactive: [1] inactive; negative | Test System: AMES SALMONELLA TYPHIMURIUM, Strain/Indicator: TA98, Metabolic Activation: RAT, LIVER, S-9, AROCLOR 1254 OR PHENOBARBITOL, Method: STANDARD PLATE inactive; negative | [2] inactive; negative | Test System: AMES SALMONELLA TYPHIMURIUM, Strain/Indicator: TA100, Metabolic Activation: RAT, LIVER, S-9, AROCLOR 1254 OR PHENOBARBITOL, Method: STANDARD PLATE inactive; negative | [3] inactive; negative | [5] inactive; negative | Test System: AMES SALMONELLA TYPHIMURIUM, Strain/Indicator: TA1538, Metabolic Activation: RAT, LIVER, S-9, AROCLOR 1254 OR PHENOBARBITOL, Method: STANDARD PLATE inactive; negative
active: Test System: AMES SALMONELLA TYPHIMURIUM, Strain/Indicator: TA1535, Metabolic Activation: RAT, LIVER, S-9, AROCLOR 1254 OR PHENOBARBITOL, Method: STANDARD PLATE active; positive | [4] active; positive | Test System: AMES SALMONELLA TYPHIMURIUM, Strain/Indicator: TA1537, Metabolic Activation: RAT, LIVER, S-9, AROCLOR 1254 OR PHENOBARBITOL, Method: STANDARD PLATE active; positive | Test System: MOUSE LYMPHOMA, Strain/Indicator: L5178Y (TK+/TK-), Metabolic Activation: NONE, Method: SUSPENSION/PLATE active; positive

CCOC(=O)c1cc(Cc2ccc(N)c(C(=O)OCC)c2)ccc1N
inactive: [6] inactive; negative | Test System: AMES SALMONELLA TYPHIMURIUM, Strain/Indicator: TA98, Metabolic Activation: RAT, LIVER, S-9, PCB, Method: PREINCUBATION inactive; negative | [7] inactive; negative

Nc1ccc([N+](=O)[O-])c(N)c1
inactive: Test System: AMES SALMONELLA TYPHIMURIUM, Strain/Indicator: TA97, Metabolic Activation: HAMSTER, LIVER, S-9, AROCLOR 1254 (10%), Method: PREINCUBATION inactive; negative | Test System: AMES SALMONELLA TYPHIMURIUM, Strain/Indicator: TA97, Metabolic Activation: NONE, Method: PREINCUBATION inactive; negative | Test System: AMES SALMONELLA TYPHIMURIUM, Strain/Indicator: TA97, Metabolic Activation: RAT, LIVER, S-9, AROCLOR 1254 (5, 10 OR 30%), Method: PREINCUBATION inactive; negative | Test System: AMES SALMONELLA TYPHIMURIUM, Strain/Indicator: TA100, Metabolic Activation: HAMSTER, LIVER, S-9, AROCLOR 1254 (10%), Method: PREINCUBATION inactive; negative | [7] inactive; negative | Test System: AMES SALMONELLA TYPHIMURIUM, Strain/Indicator: TA100, Metabolic Activation: RAT, LIVER, S-9, AROCLOR 1254 (10%), Method: PREINCUBATION inactive; negative | Test System: AMES SALMONELLA TYPHIMURIUM, Strain/Indicator: TA1535, Metabolic Activation: HAMSTER, LIVER, S-9, AROCLOR 1254 (10%), Method: PREINCUBATION inactive; negative | Test System: AMES SALMONELLA TYPHIMURIUM, Strain/Indicator: TA1535, Metabolic Activation: NONE, Method: PREINCUBATION inactive; negative | Test System: AMES SALMONELLA TYPHIMURIUM, Strain/Indicator: TA1535, Metabolic Activation: RAT, LIVER, S-9, AROCLOR 1254 (10%), Method: PREINCUBATION inactive; negative | Test System: AMES SALMONELLA TYPHIMURIUM, Strain/Indicator: TA1537, Metabolic Activation: NONE, Method: PREINCUBATION inactive; negative | Test System: AMES SALMONELLA TYPHIMURIUM, Strain/Indicator: TA1537, Metabolic Activation: RAT, LIVER, S-9, AROCLOR 1254 (10%), Method: PREINCUBATION inactive; negative
active: Test System: AMES SALMONELLA TYPHIMURIUM, Strain/Indicator: TA98, Metabolic Activation: HAMSTER, LIVER, S-9, AROCLOR 1254 (10%), Method: PREINCUBATION active; positive | [6] active; positive | Test System: AMES SALMONELLA TYPHIMURIUM, Strain/Indicator: TA98, Metabolic Activation: RAT, LIVER, S-9, AROCLOR 1254 (10%), Method: PREINCUBATION active; positive | Test System: AMES SALMONELLA TYPHIMURIUM, Strain/Indicator: TA1537, Metabolic Activation: HAMSTER, LIVER, S-9, AROCLOR 1254 (10%), Method: PREINCUBATION active; positive

O=[N+]([O-])c1cc2cccc3c4c(c5cccc1c5c23)CCCC4
active: Test System: AMES SALMONELLA TYPHIMURIUM, Strain/Indicator: TA98, Metabolic Activation: NONE', Method: STANDARD PLATE active; positive | [2] active; positive

CN1CCC(=C2c3ccccc3C=Cc3ccccc32)CC1
inactive: [1] inactive; negative | Test System: AMES SALMONELLA TYPHIMURIUM, Strain/Indicator: TA98, Metabolic Activation: RAT, LIVER, S-9, AROCLOR 1254, Method: STANDARD PLATE inactive; negative | [2] inactive; negative | Test System: AMES SALMONELLA TYPHIMURIUM, Strain/Indicator: TA100, Metabolic Activation: RAT, LIVER, S-9, AROCLOR 1254, Method: STANDARD PLATE inactive; negative | [3] inactive; negative | Test System: AMES SALMONELLA TYPHIMURIUM, Strain/Indicator: TA1535, Metabolic Activation: RAT, LIVER, S-9, AROCLOR 1254, Method: STANDARD PLATE inactive; negative | [4] inactive; negative | Test System: AMES SALMONELLA TYPHIMURIUM, Strain/Indicator: TA1537, Metabolic Activation: RAT, LIVER, S-9, AROCLOR 1254, Method: STANDARD PLATE inactive; negative | [5] inactive; negative | Test System: AMES SALMONELLA TYPHIMURIUM, Strain/Indicator: TA1538, Metabolic Activation: RAT, LIVER, S-9, AROCLOR 1254, Method: STANDARD PLATE inactive; negative
